Test results from US7354918B2, “Derivatives of 14.15-dihydro 20.21-dinoreburnamenin-14-ol and applications thereof” (Biocortech, priority 2004, dated 2008).

Key:
[1] = test system: tyrosine hydroxylase (TH) in the Locus Caeruleus (LC); assay: TH protein content in the locus caeruleus, direct transfer of brain sections on nitrocellulose, quantitative immunochemistry; format: in vivo, Balb/c mice; settings: for Quantity of TH measured in the LC: single dose 20 mg/kg i.p., sacrificed three days after injection, average±sem on the entire structure, percent of the average value of the corresponding control group
Balb/c variety = assay: Tail Suspension Test (TST); format: in vivo, Balb/c mice; settings: 6-minute period, vehicle 180
Protocol: The behavioural activity test, the Tail Suspension Test (TST) validated by antidepressants (Ref. 7) in the Balb/c variety, was also done for the molecule in the preferred example (Ie1b) at a dose of 1 mg/kg i.p. The experiment given as an example was carried out three days after a single injection and the effect was compared with the effect of imipramine (30 mg/kg i.p. 30 minutes before the test) (see Table 4 below).
The results are the average for n animals.

[2] = test system: voltage dependent K channels; assay: Receptorial profile in vitro on 74 receptors and channels; format: binding; settings: concentration of 10 micromoles
[3] = Biodistribution study (brain, liver) after i.p. and oral administration; format: in vivo; settings: for share of the cerebral concentration: 45 minutes after p.o. administration of (Ie1) 60 mg/kg
[4] = test system: cells containing TH in the LC; assay: Number of TH immunopositive cells in the LC by immunohistochemistry; format: in vivo, Balb/c mice
Protocol: The number of immunopositive cells for TH is determined starting from coronal brain sections fixed by immunohistochemistry using the same anatomic sampling.
The results in FIG. 2 show the posterior-anterior distribution of the number of cells containing TH in the LC determined by immunohistochemistry obtained in a control group of Balb/c mice and in a group of mice treated by the molecule with formula (Ie1). Each bar represents the average obtained in each 80 μm anatomic interval in each experimental group±sem. **** indicates p<0.0001 determined by an ANOVA II (treatment factor). […] In the entire structure, the average values found were equal to 996±1 and 1250±58 in the control group and in the treated group respectively. (Administered dose 20 mg/kg i.p. sequential treatment at D0, D3, D6, D9 and D12, animals sacrificed at D16).
This phenomenon may be stabilised by an appropriate sequential treatment (for example: one 20 mg/kg i.p. injection every 3 days for 15 days, see FIG. 2). Under these conditions, the increase in the number of positive supernumerary TH cells that appeared in the LC is still maintained for 24 days after the treatment stopped.

5HT5A receptors = 5HT5A receptors (Homo sapiens, UniProt P47898); assay: Receptorial profile in vitro on 74 receptors and channels; format: binding; settings: concentration of 10 micromoles
SK+Ca channels = assay: as above; format: binding; settings: concentration of 10 micromoles
M1 receptors = target: T1, M1 receptors (Homo sapiens, UniProt P11229); assay: as above; format: binding; settings: concentration of 10 micromoles
T1 sequence (P11229 1-460): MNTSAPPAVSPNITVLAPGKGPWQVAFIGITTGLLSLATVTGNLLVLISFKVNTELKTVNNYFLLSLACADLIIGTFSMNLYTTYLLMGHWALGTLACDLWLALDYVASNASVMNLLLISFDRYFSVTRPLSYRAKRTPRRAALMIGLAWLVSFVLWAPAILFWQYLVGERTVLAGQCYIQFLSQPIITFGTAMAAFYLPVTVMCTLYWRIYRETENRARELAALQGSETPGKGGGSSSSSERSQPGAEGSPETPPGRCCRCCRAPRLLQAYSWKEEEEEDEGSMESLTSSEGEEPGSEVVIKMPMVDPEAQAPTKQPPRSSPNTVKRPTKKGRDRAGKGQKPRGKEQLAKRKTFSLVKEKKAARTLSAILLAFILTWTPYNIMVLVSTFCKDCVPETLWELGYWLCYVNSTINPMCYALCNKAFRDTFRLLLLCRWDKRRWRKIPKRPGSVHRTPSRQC

[5] = test system: voltage dependent Ca channels; assay: as above; format: binding; settings: concentration of 10 micromoles
[6] = test system: cells expressing hypocretins in the lateral hypothalamus; assay: Distribution of cells expressing hypocretins in the lateral hypothalamus by immunocytochemistry; format: in vivo, Balb/c mice; settings: single dose 20 mg/kg i.p.
Protocol: This property is shared with its direct synthesis precursor, the compound with formula (1). Table 3 below illustrates this type of result the two chemical entities:
The distribution of cells expressing hypocretins in the lateral hypothalamus is studied here with posterior—anterior sampling in consecutive 80 μm thick intervals. The cells are identified by immunocytochemistry using specific antibodies. The two molecules studied were administered by i.p. method with a single dose of 20 mg/kg. The animals were sacrificed three days after injection. A population of about a hundred supernumerary cells is thus identified at the posterior third of the cerebral core.

[7] = test system: catecholamine transport systems; assay: Receptorial profile in vitro on 74 receptors and channels; format: binding; settings: concentration of 10 micromoles
[8] = test system: positive TH fibres of the prefrontal cortex; assay: Positive TH (noradrenergic) fibres in the prefrontal cortex by immunocytochemistry; format: in vivo, Balb/c mouse; settings: 5 i.p. injections 20 mg/kg every three days, sacrificed three days after the last injection
Source text: The results in FIG. 3 show the distribution of positive TH fibres on a prefrontal cortex sample of the Balb/c mouse. At left: in a control mouse, the typical orientation (parallel to the surface of the cortex) of noradrenergic fibres identified using an immunocytochemical reaction related to the presence of TH protein, is noticed in the molecular layer of the prefrontal cortex. […] The animals were sacrificed three days after the last injection. The dashed lines mark the limit of the molecular layer of the prefrontal cortex.

[9] = test system: voltage dependent Na channels; assay: Receptorial profile in vitro on 74 receptors and channels; format: binding; settings: concentration of 10 micromoles
[10] = Interval 1 (80 μm, posterior-anterior), sacrificed three days after injection
[11] = Interval 2, three days after injection
[12] = Interval 3, three days after injection
[13] = Interval 4, three days after injection
[14] = Interval 5, three days after injection
[15] = Interval 6, three days after injection
[16] = Interval 7, three days after injection
[17] = Interval 8, three days after injection
[18] = Interval 9, three days after injection
[19] = Interval 10, three days after injection
[20] = Interval 11, three days after injection
[21] = Sum of intervals 1-11, three days after injection

5HT5A receptors, sequence (P47898 whole entry): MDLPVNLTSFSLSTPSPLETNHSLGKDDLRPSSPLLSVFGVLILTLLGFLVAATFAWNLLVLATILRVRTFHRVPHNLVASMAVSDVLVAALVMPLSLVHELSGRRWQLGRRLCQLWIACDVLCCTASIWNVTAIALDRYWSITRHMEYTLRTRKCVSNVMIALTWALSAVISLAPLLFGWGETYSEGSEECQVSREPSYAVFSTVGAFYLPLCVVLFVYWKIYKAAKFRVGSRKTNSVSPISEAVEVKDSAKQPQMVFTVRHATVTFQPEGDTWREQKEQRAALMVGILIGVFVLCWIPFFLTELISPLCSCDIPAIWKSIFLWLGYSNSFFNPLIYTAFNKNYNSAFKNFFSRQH

14,15-dihydro 14-(2-morpholin-4-yl-ethoxy) 20,21-dinoreburnamenin [(Ie1b)]
activity relative to the other enantiomer (Ie1a) ([1]; mouse, in vivo): twice as active | Average immobilisation time (Balb/c variety; 1 mg/kg i.p., three days after a single injection): 130 s

CCOC(=O)COC1C[C@@H]2CCCN3CCc4c(n1c1ccccc41)[C@@H]23 (mixture of isomers) [(Ia1), (±) (16α) 14,15-dihydro 14-ethoxycarbonylmethoxy-20,21-dinoreburnamenin]
Quantity of TH measured in the LC [1]: 151 ± 5%

Cc1noc(COC2C[C@@H]3CCCN4CCc5c(n2c2ccccc52)[C@@H]34)n1 (mixture of isomers) [(Ig1), (±) (3β, 16α) 14,15-dihydro 14-(3-methyl-[1,2,4]oxadiazol-5-ylmethoxy) 20,21-dinoreburnamenin]
Quantity of TH measured in the LC [1]: 118 ± 3%

c1ccc(COC2C[C@@H]3CCCN4CCc5c(n2c2ccccc52)[C@@H]34)cc1 (mixture of isomers) [Compound (Id), (±) (3β, 16α) 14,15-dihydro 14-benzyloxy 20,21-dinoreburnamenin]
Quantity of TH measured in the LC [1]: 129 ± 5%

c1ccc2c(c1)c1c3n2[C@H](OCCN2CCOCC2)C[C@@H]2CCCN(CC1)[C@@H]32 (racemic) [Compound (Ie1), 14,15-dihydro 14-(2-morpholin-4-yl-ethoxy) 20,21-dinoreburnamenin]
interaction with voltage dependent K channels [2]: no interaction | cerebral concentration/hepatic concentration ratio ([3]; 45 minutes after i.p. administration, 20 mg/kg): 0.41 | cerebral concentration/hepatic concentration ratio ([3]; 45 minutes after os administration, 60 mg/kg): 0.49 | share of the cerebral concentration [3]: 89% | number of cells containing TH in the LC, entire structure (average) ([4]; 20 mg/kg i.p. sequential treatment at D0, D3, D6, D9 and D12, sacrificed at D16, control group 996±1): 1250±58 | time for which the increase in positive supernumerary TH cells in the LC is maintained after the treatment stopped ([4]; one 20 mg/kg i.p. injection every 3 days for 15 days): 24 days | affinity for 5HT5A receptors (5HT5A receptors): moderate affinity link may be suspected | interaction with SK+Ca channels (SK+Ca channels): no interaction | affinity for M1 receptors (M1 receptors): moderate affinity link may be suspected | 50% effective dose (DE50) ([1]; intra-peritoneal (i.p.) method): 0.5 mg/kg | activity relative to direct synthesis precursor with formula (1) ([1]; mouse, in vivo): 30 times | activity by mouth ([1]; oral): active by mouth | 50% effective dose (DE50) ([1]; oral (p.o.) method): 1.5 mg/kg | Quantity of TH measured in the LC [1]: 138 ± 4% | interaction with voltage dependent Ca channels [5]: no interaction | Number of cells expressing hypocretins [6, 10]: 31.9 | Number of cells expressing hypocretins [6, 11]: 63.7 | Number of cells expressing hypocretins [6, 12]: 125.1 | Number of cells expressing hypocretins [6, 13]: 210.5 | Number of cells expressing hypocretins [6, 14]: 331.7 | Number of cells expressing hypocretins [6, 15]: 369.9 | Number of cells expressing hypocretins [6, 16]: 388.7 | Number of cells expressing hypocretins [6, 17]: 322.5 | Number of cells expressing hypocretins [6, 18]: 216.3 | Number of cells expressing hypocretins [6, 19]: 104.8 | Number of cells expressing hypocretins [6, 20]: 56.0 | Number of cells expressing hypocretins [6, 21]: 2221.1 | interaction with catecholamine transport systems [7]: no interaction | density of noradrenergic fibres in the prefrontal cortex [8]: very significant increase | interaction with voltage dependent Na channels [9]: no interaction

O=C(COC1CC2CCCN3CCc4c(n1c1ccccc41)C23)NCCN1CCOCC1 (racemic) [Compound (If1), (±) (3β, 16α) 14,15-dihydro 14-[(2-morpholin-4-yl-ethylcarbamoyl)-methoxy]20,21-dinoreburnamenin]
increase of the total TH content in the LC ([1]; FIG. 1, 3 days after a single i.p. injection (20 mg/kg), versus control mice): 13±3% | Quantity of TH measured in the LC [1]: 113 ± 4%

C1=Cn2c3c(c4ccccc42)CCN2CCC[C@@H]1[C@H]32 [(Ij1)]
Quantity of TH measured in the LC [1]: 123 ± 2%

OC1C[C@H]2CCCN3CCc4c(n1c1ccccc41)[C@@H]23 (stereo partly drawn) [Compound (1), 14,15 dihydro-20,21-dinoreburnamenin14-ol, reference compound]
presence of the substance after i.p. administration of compound (Ie1) ([3]; 45 minutes after i.p. administration of (Ie1) 20 mg/kg): undetectable | share of the cerebral concentration [3]: 11% | Quantity of TH measured in the LC [1]: 120 ± 4% | Number of cells expressing hypocretins [6, 10]: 60.357 | Number of cells expressing hypocretins [6, 11]: 116.369 | Number of cells expressing hypocretins [6, 12]: 177.209 | Number of cells expressing hypocretins [6, 13]: 317.237 | Number of cells expressing hypocretins [6, 14]: 367.454 | Number of cells expressing hypocretins [6, 15]: 377.594 | Number of cells expressing hypocretins [6, 16]: 365.523 | Number of cells expressing hypocretins [6, 17]: 236.600 | Number of cells expressing hypocretins [6, 18]: 136.166 | Number of cells expressing hypocretins [6, 19]: 60.840 | Number of cells expressing hypocretins [6, 20]: 23.177 | Number of cells expressing hypocretins [6, 21]: 2238.526

CN(C)CCCN1c2ccccc2CCc2ccccc21 [Imipramine, imipramine, reference compound]
Average immobilisation time (Balb/c variety; 30 mg/kg i.p. 30 minutes before the test): 70 s
